The structures appear in SMILES notation.

Test in all cases: c-ponatinib pulldown LC-MS/MS
What all share (type): binding

In one assay the target is MAPKAPK2 (Homo sapiens, UniProt P49137). Summed up: (§1)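 Affinity matrix: 25 nmol c-ponatinib/50 μl NHS-Sepharose; 10 mg whole cell lysate input; duplicate pulldowns, each run twice by LC-MS/MS. DTT/iodoacetamide, trypsin. Human SwissProt search, protein FDR <1%. Competition with free compound; fold reduction = median spectral count ratio.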
The target of the next assay is CDK5 (Homo sapiens, UniProt Q00535). Summed up: as §1
Chain of CDK5 (Q00535 whole entry): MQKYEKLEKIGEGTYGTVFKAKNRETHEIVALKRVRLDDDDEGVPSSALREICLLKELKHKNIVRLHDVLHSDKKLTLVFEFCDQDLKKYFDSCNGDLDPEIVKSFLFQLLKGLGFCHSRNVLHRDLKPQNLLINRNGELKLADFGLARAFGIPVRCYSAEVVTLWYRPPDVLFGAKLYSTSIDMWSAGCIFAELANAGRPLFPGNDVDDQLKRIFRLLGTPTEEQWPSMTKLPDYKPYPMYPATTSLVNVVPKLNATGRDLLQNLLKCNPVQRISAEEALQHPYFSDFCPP
The next assay concerns the target T1, TAB1 (Homo sapiens, UniProt Q15750).
T1 sequence (Q15750 1-504): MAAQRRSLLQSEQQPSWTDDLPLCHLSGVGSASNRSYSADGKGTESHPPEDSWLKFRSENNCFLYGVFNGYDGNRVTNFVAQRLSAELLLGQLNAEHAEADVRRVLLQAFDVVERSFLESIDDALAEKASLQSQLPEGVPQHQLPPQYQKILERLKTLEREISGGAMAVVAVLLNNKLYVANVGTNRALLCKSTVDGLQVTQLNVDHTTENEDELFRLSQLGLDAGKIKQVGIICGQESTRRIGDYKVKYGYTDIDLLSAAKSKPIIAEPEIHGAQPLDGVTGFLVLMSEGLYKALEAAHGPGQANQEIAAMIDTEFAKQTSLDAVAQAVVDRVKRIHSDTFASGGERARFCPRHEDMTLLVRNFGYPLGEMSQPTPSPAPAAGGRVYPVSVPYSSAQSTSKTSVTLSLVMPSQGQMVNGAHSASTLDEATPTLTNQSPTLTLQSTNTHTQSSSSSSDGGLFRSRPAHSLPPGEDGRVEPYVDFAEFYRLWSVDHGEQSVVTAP
T1 sequence (O43318 1-606 partner): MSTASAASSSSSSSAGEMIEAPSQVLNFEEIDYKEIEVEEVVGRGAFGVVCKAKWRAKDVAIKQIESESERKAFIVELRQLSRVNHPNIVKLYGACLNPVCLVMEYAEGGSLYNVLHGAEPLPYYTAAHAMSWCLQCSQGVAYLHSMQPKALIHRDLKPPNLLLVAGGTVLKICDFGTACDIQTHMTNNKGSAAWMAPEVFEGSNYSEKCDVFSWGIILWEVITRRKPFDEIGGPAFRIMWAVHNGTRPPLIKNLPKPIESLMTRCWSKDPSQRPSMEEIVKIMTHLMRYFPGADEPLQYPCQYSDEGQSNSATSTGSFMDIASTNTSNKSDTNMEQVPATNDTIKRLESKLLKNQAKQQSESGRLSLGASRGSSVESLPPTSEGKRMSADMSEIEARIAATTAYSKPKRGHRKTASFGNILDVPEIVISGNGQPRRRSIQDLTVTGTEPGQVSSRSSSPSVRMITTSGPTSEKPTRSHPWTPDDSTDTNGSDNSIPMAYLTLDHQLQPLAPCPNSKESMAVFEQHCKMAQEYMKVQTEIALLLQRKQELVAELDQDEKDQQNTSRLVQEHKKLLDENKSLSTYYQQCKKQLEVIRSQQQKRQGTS
The method, boiled down: as §1

The next assay deals with CSK (Homo sapiens, UniProt P41240). The method, boiled down: as §1
Chain of CSK (P41240 whole entry): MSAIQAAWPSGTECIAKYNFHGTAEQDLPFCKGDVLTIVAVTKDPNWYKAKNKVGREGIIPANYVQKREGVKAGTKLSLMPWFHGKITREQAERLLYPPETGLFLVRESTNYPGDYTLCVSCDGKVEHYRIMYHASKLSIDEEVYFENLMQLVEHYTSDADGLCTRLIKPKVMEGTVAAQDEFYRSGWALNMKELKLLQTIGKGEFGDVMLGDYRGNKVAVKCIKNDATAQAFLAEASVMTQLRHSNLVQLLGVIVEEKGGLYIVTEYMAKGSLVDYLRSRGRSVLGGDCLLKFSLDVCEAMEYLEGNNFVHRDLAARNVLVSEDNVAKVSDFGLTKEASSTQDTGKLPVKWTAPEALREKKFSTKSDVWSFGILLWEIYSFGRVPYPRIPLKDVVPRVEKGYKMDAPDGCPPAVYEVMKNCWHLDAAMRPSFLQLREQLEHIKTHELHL
The target in another assay is MAP4K1 (Homo sapiens, UniProt Q92918). The method, boiled down:
as §1

Chain of MAP4K1 (Q92918 whole entry): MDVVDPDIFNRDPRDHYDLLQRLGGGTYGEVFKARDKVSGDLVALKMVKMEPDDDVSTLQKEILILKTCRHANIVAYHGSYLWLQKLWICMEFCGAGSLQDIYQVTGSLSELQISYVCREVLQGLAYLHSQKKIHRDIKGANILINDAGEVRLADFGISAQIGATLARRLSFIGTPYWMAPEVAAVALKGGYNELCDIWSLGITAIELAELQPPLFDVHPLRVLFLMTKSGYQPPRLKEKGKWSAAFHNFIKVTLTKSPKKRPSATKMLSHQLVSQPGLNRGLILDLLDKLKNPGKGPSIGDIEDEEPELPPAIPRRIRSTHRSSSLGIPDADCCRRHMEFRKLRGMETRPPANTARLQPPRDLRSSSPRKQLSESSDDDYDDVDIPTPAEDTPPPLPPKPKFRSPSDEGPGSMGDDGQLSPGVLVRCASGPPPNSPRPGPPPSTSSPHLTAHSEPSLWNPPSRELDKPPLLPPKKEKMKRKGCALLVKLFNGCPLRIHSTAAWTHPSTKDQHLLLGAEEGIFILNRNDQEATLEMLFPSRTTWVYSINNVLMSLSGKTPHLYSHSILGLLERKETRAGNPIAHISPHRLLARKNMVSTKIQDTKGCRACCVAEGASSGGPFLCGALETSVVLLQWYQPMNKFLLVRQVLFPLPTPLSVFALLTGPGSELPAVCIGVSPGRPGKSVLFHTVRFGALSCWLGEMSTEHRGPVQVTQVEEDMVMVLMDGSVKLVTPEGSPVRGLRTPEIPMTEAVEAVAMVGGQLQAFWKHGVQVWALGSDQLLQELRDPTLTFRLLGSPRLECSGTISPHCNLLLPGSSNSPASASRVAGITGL
Chain of MAPKAPK2 (P49137 whole entry): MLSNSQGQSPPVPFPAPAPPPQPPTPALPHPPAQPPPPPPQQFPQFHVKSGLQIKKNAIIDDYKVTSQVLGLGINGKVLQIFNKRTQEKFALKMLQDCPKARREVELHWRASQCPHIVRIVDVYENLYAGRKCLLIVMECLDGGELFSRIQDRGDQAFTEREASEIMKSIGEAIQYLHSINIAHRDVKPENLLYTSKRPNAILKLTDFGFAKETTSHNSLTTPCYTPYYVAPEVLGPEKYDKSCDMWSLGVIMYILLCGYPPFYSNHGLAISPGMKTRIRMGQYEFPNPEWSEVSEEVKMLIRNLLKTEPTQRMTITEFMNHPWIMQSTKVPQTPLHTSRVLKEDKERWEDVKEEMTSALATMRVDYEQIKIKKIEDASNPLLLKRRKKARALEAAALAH

As to `Cc1ccc(C(=O)Nc2ccc(CN3CCN(CCCN)CC3)c(C(F)(F)F)c2)cc1C#Cc1cnc2cccnn12` [c-ponatinib], the “Av. SC comp.” value at MAPKAPK2 (+ free ponatinib) was found to be 0; at CDK5 (+ free ponatinib), 2.75; at TAB1 (+ free ponatinib) it was 6.75; on CSK (+ free ponatinib) it was 4.5; on MAP4K1 (+ free ponatinib) it was 2.5. Moreover, the “Total SC comp.” value is 0 on MAPKAPK2 (+ free ponatinib); 11 at CDK5 (+ free ponatinib); 27 on TAB1 (+ free ponatinib); 18 on CSK (+ free ponatinib); 10 on MAP4K1 (+ free ponatinib). Further, the “Av. SC” value worked out at 23.5 at MAPKAPK2 (no competitor); 7.25 at CDK5 (no competitor); 38.25 on TAB1 (no competitor); 52.25 at CSK (no competitor); 46.75 at MAP4K1 (no competitor). Further, the “Total SC” value came to 94 on MAPKAPK2 (no competitor); 29 at CDK5 (no competitor); 153 at TAB1 (no competitor); 209 on CSK (no competitor); 187 on MAP4K1 (no competitor).

Source of the values: publication PMC4669708 (Cell Death & Disease, 2015).
